The values below come from PubChem BioAssay (NCI).

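Assay format: 96-well plates, 48-hour exposure. Definition used: TGI = concentration required for complete inhibition of growth.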

Among the test systems are SF-268 CNS; SK-MEL-28 melanoma; HS 578T breast; NCI-H23 lung; MALME-3M melanoma; NCI-H460 lung; T-47D breast; K-562 leukemia; HOP-92 NSCLC.
Test in all cases: NCI-60 cell line screen, 48 h

For `C=C(Cl)C(Cl)(CBr)CCC(Cl)C(C)C` (stereo not given), the TGI came out at 11.5 µM in the assay on SF-268 CNS; 5.62 µM with SK-MEL-28 melanoma; 4.07 µM in the assay with HS 578T breast; 50 µM in the assay on NCI-H23 lung; 28.4 µM in the assay on MALME-3M melanoma; 5.47 µM in the assay with NCI-H460 lung. The TGI is 0.411 µM with T-47D breast, above 100 µM in the assay on K-562 leukemia and 3.52 µM in the assay on HOP-92 NSCLC.

For `C[C@H]1C(=O)C2=C[C@H]1CCC(=O)[C@]1(C)CCCC(C)(C)[C@H]1C[C@H]2O`, the TGI in the assay with SF-268 CNS is 64 µM; in the assay on SK-MEL-28 melanoma, above 100 µM; in the assay on HS 578T breast, 62.7 µM; in the assay with NCI-H23 lung it was 57.7 µM; in the assay on MALME-3M melanoma, 43.5 µM; in the assay with NCI-H460 lung, 58.9 µM. The TGI stood at 32.9 µM with T-47D breast, 33.4 µM with K-562 leukemia and 54.3 µM in the assay on HOP-92 NSCLC.

As for `Fc1ccccc1N=c1oc2ccc(Br)cc2cc1-c1nc2ccccc2[nH]1`, the TGI is 21 µM in the assay with SF-268 CNS; above 76.2 µM with SK-MEL-28 melanoma; 13.4 µM in the assay with HS 578T breast; 29.8 µM in the assay on NCI-H23 lung; 14.9 µM in the assay on MALME-3M melanoma; above 76.6 µM with NCI-H460 lung. Further, the TGI is above 100 µM with T-47D breast, above 100 µM with K-562 leukemia and 83.8 µM in the assay with HOP-92 NSCLC.

`CN1CCN(c2nc3c(c(=O)n(C)c(=O)n3C)n2C)CC1`: the TGI with SF-268 CNS, with SK-MEL-28 melanoma, with HS 578T breast, with NCI-H23 lung, in the assay with MALME-3M melanoma and in the assay on NCI-H460 lung was above 100 µM in each case. Also, the TGI in the assay with T-47D breast, in the assay with K-562 leukemia and in the assay on HOP-92 NSCLC was above 100 µM each time.

For `Nc1c2ccccc2nc2ccc(C(=O)Nc3ccc(S(N)(=O)=O)cc3)cc12`, the TGI in the assay with SF-268 CNS, in the assay with SK-MEL-28 melanoma, in the assay with HS 578T breast, with NCI-H23 lung, in the assay on MALME-3M melanoma and in the assay with NCI-H460 lung was above 100 µM throughout. Also, the TGI in the assay with T-47D breast, with K-562 leukemia and in the assay with HOP-92 NSCLC was above 100 µM throughout.

As for `COc1ccc(/C=N/NC(=O)c2ccccc2Nc2ccccc2C(=O)N/N=C/c2ccc(OC)c(OC)c2)cc1OC`, the TGI in the assay with SF-268 CNS, in the assay on SK-MEL-28 melanoma, in the assay on HS 578T breast, in the assay on NCI-H23 lung, in the assay with MALME-3M melanoma and with NCI-H460 lung was above 100 µM throughout. Besides, the TGI with T-47D breast, with K-562 leukemia and in the assay with HOP-92 NSCLC was above 100 µM throughout.

Consider `Cc1ccc(-c2cn3c(nc4ccccc43)c(C)n2)cc1`, for which the TGI was above 100 µM with SF-268 CNS; above 100 µM in the assay on SK-MEL-28 melanoma; above 100 µM in the assay on HS 578T breast; above 100 µM in the assay on NCI-H23 lung; above 67.8 µM with MALME-3M melanoma; above 100 µM with NCI-H460 lung. Further, the TGI with T-47D breast is above 30.1 µM; in the assay on K-562 leukemia, above 100 µM; with HOP-92 NSCLC it was 98.1 µM.

Turning to `CC(C)(C)C(=O)C(C#N)C(=O)C(C)(C)C`, the TGI in the assay on SF-268 CNS, in the assay on SK-MEL-28 melanoma, with HS 578T breast, in the assay on NCI-H23 lung, with MALME-3M melanoma and in the assay on NCI-H460 lung was above 100 µM in each case. Further, the TGI in the assay on T-47D breast, in the assay on K-562 leukemia and in the assay with HOP-92 NSCLC was above 100 µM throughout.

`CN(C)CCCN1c2ccc3ccccc3c2Sc2cccc(Cl)c21`: the TGI in the assay with SF-268 CNS stood at 32.5 µM; in the assay with SK-MEL-28 melanoma, 4.3 µM; with HS 578T breast it was 21.7 µM; in the assay on NCI-H23 lung, 35.4 µM; in the assay on MALME-3M melanoma it was 23 µM; with NCI-H460 lung, 3.25 µM. Also, the TGI with T-47D breast worked out at 7.17 µM; in the assay on K-562 leukemia, 3.77 µM; with HOP-92 NSCLC, 9.1 µM.

Regarding `O=C1N[C@@H](c2c[nH]c3ccc(Br)cc23)C(=O)N[C@H]1c1c[nH]c2ccc(Br)cc12`, the TGI in the assay with SF-268 CNS came to 26.3 µM; with SK-MEL-28 melanoma, 28.5 µM; with HS 578T breast, 34.3 µM; in the assay with NCI-H23 lung it was 28.2 µM; in the assay on MALME-3M melanoma, 28.8 µM; in the assay with NCI-H460 lung it was 27.8 µM. For the same compound, the TGI in the assay with T-47D breast is 36.4 µM; in the assay on K-562 leukemia, 18.9 µM; in the assay on HOP-92 NSCLC it was 15.5 µM.

With `COc1cc(C2c3cc4c(c(O)c3C(=O)C3CCC(=O)N32)OCO4)cc(OC)c1OC` (stereo not given), the TGI with SF-268 CNS, with SK-MEL-28 melanoma, in the assay on HS 578T breast, with NCI-H23 lung, with MALME-3M melanoma and in the assay on NCI-H460 lung was above 100 µM throughout. For the same compound, the TGI with T-47D breast was above 100 µM; in the assay on K-562 leukemia, above 100 µM; with HOP-92 NSCLC, 86.7 µM.

Take `O=C1CSC(c2ccc(Cl)cc2)N1c1ccc(-n2c(-c3ccccc3)nc3ccccc3c2=O)cc1` (stereo not given): the TGI with SF-268 CNS, in the assay with SK-MEL-28 melanoma, in the assay on HS 578T breast, with NCI-H23 lung, in the assay on MALME-3M melanoma and in the assay on NCI-H460 lung was above 100 µM in each case. The TGI in the assay with T-47D breast, with K-562 leukemia and with HOP-92 NSCLC was above 100 µM each time.

On to `O=c1n(CCO)nc2n1CCCN2`, for which the TGI in the assay on SF-268 CNS, in the assay with SK-MEL-28 melanoma, in the assay on HS 578T breast, in the assay on NCI-H23 lung, with MALME-3M melanoma and in the assay with NCI-H460 lung was above 100 µM in each case. Moreover, the TGI with T-47D breast, in the assay with K-562 leukemia and in the assay on HOP-92 NSCLC was above 100 µM throughout.

With `CCC(c1ccc(N(C)C)cc1)C1NC(=S)NC1=O` (stereo not given), the TGI in the assay with SF-268 CNS, in the assay with SK-MEL-28 melanoma, in the assay with HS 578T breast, in the assay on NCI-H23 lung, in the assay with MALME-3M melanoma and in the assay with NCI-H460 lung was above 100 µM each time. For the same compound, the TGI is above 100 µM in the assay on T-47D breast, 59.6 µM in the assay on K-562 leukemia and above 100 µM in the assay with HOP-92 NSCLC.

In the case of `O=C(CSCC(=O)N/N=C\c1cc(Br)cc(Br)c1O)N/N=C\c1cc(Br)cc(Br)c1O`, the TGI in the assay on SF-268 CNS was 58.2 µM; with SK-MEL-28 melanoma, above 100 µM; in the assay with HS 578T breast, above 100 µM; in the assay on NCI-H23 lung, above 100 µM; in the assay on MALME-3M melanoma, 42.5 µM; in the assay with NCI-H460 lung, above 100 µM. For the same compound, the TGI with T-47D breast is above 100 µM; with K-562 leukemia, 80.1 µM; in the assay on HOP-92 NSCLC, 79 µM.
